Reference: patent US11912703B2, “6-azaindole compounds” (BRISTOL-MYERS SQUIBB COMPANY, priority 2017, dated 2024)
Like-named read-outs stand apart in the source and are kept apart here.

Experiments:
human TLR9 = human TLR9 (Homo sapiens (Human), UniProt Q9NR96); assay: TLR9 inhibition reporter assay (HEK-Blue SEAP);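 further: SEAP driven by IFN-β minimal promoter carrying five NF-κB and AP-1 sites, 22 h at 37 °C, compounds 0.05 nM–50 µM, inhibition scaled between agonist-plus-DMSO and reference-inhibitor wells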
Description: HEK-Blue™-cells (Invivogen) overexpressing human TLR7, TLR8 or TLR9 receptors were used for screening inhibitors of these receptors using an inducible SEAP (secreted embryonic alkaline phosphatase) reporter gene under the control of the IFN-β minimal promoter fused to five NF-κB and AP-1-binding sites. Briefly, cells are seeded into Greiner 384 well plates (15000 cells per well for TLR7, 20,000 for TLR8 and 25,000 for TLR9) and then treated with test compounds in DMSO to yield a final dose response concentration range of 0.05 nM-50 μM. After a 30 minute compound pre-treatment at room temperature, the cells are then stimulated with a TLR7 ligand (gardiquimod at a final concentration of 7.5 μM), TLR8 ligand (R848 at a final concentration of 15.9 μM) or TLR9 ligand (ODN2006 at a final concentration of 5 nM) to activate NF-κB and AP-1 which induce the production of SEAP. After a 22 hour incubation at 37° C., 500 CO2, SEAP levels are determined with the addition of HEK-Blue™ Detection reagent (Invivogen), a cell culture medium that allows for detection of SEAP, according to manufacturer's specifications.

human TLR8 = human TLR8 (Homo sapiens (Human), UniProt Q9NR97); assay: TLR8 inhibition reporter assay (HEK-Blue SEAP);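 further: SEAP driven by IFN-β minimal promoter with five NF-κB and AP-1 sites, compounds tested 0.05 nM to 50 µM, 22 h incubation, inhibition relative to agonist plus DMSO wells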
human TLR7 = human TLR7 (Homo sapiens (Human), UniProt Q9NYK1); assay: TLR7 inhibition reporter assay (HEK-Blue SEAP); format: cell-based; conditions: HEK-Blue cells overexpressing human TLR7, gardiquimod 7.5 μM stimulation
[1] = read-out: TLR8 IC50; HEK-Blue cells overexpressing human TLR8, R848 15.9 μM stimulation, SEAP reporter
[2] = read-out: TLR9 IC50; HEK-Blue cells overexpressing human TLR9, ODN2006 5 nM stimulation, SEAP reporter
[3] = read-out: TLR9 IC50; HEK-Blue cells overexpressing human TLR9; ODN2006 5 nM stimulation; SEAP reporter
[4] = read-out: TLR8 IC50; HEK-Blue cells overexpressing human TLR8; R848 15.9 μM stimulation; SEAP reporter

Chain of human TLR9 (Q9NR96 26-1032): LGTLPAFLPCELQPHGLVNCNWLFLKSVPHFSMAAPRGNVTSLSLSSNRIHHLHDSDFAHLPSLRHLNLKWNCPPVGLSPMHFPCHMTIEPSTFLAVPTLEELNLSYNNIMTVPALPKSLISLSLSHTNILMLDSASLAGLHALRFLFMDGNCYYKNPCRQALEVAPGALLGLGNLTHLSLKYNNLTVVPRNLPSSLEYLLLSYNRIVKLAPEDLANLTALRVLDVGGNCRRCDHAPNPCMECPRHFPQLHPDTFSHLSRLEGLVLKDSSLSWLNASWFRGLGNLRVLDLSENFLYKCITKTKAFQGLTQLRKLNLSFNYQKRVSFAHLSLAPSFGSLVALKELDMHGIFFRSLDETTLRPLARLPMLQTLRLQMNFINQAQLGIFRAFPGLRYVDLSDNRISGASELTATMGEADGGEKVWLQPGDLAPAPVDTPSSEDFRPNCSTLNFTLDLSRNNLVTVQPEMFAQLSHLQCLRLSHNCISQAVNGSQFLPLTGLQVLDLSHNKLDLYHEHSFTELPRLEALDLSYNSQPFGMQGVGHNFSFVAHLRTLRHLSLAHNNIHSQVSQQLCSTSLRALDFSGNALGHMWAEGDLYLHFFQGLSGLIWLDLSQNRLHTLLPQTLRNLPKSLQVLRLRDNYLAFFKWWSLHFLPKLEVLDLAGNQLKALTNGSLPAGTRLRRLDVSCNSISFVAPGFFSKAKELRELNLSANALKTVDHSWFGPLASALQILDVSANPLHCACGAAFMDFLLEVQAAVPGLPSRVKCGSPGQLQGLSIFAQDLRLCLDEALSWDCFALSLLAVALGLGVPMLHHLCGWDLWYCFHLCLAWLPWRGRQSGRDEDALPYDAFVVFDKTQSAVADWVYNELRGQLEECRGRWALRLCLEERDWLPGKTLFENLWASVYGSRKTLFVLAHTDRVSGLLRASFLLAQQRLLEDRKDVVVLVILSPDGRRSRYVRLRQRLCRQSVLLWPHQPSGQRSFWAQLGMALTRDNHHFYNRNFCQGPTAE
Chain of human TLR7 (Q9NYK1 27-1049): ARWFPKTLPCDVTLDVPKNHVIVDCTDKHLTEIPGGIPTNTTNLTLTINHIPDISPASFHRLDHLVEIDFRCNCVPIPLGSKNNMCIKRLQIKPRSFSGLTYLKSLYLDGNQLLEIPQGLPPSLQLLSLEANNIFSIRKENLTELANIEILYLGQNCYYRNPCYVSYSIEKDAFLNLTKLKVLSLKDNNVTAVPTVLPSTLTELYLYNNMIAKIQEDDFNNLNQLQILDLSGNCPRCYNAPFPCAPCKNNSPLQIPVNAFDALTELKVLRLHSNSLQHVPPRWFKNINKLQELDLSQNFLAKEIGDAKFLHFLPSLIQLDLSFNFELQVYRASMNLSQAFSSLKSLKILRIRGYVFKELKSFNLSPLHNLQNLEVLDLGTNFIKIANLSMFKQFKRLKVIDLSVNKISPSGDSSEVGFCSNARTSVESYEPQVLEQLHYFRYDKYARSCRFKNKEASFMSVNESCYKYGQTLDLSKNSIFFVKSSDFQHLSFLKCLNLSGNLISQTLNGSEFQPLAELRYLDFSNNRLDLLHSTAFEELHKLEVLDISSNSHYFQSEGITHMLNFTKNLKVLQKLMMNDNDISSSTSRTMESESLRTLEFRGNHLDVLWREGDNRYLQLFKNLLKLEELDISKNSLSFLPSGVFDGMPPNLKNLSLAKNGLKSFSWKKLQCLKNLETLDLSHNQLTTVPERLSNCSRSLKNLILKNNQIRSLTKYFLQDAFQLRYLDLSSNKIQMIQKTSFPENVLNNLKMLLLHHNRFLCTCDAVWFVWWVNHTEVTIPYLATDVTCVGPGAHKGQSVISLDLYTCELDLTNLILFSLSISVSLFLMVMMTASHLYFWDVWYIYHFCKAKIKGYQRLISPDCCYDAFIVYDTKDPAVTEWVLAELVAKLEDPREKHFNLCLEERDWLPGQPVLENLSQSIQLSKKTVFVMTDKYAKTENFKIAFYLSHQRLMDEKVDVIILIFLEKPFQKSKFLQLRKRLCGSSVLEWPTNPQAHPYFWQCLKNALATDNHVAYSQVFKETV
Chain of human TLR8 (Q9NR97 27-1041): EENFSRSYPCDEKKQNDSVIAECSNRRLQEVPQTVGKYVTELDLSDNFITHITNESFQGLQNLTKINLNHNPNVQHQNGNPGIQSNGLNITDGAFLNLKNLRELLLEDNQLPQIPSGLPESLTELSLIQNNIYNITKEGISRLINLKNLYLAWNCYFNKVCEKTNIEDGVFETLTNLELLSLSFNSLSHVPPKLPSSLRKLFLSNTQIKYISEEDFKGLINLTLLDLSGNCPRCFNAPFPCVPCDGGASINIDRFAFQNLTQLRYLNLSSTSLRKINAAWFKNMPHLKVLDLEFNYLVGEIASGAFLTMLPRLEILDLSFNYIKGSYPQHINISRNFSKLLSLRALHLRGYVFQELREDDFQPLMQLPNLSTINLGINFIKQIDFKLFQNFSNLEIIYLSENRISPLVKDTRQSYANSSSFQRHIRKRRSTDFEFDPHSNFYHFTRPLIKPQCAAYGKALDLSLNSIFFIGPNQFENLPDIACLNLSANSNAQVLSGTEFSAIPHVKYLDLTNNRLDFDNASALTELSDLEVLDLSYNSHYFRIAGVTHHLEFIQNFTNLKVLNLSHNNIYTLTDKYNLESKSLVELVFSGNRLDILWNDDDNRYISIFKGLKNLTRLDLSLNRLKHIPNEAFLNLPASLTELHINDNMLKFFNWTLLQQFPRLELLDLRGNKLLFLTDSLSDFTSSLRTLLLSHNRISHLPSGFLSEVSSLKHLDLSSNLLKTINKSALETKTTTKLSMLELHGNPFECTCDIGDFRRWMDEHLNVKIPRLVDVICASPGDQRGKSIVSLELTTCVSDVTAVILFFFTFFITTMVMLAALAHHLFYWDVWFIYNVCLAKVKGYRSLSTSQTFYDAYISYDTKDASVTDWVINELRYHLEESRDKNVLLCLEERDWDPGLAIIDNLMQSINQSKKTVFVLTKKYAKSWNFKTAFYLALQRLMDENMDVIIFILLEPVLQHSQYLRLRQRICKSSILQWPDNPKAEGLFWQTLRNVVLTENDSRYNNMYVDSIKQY

| IC50 (human TLR9) [nM] | IC50 (human TLR8; [1]) [nM] | IC50 (human TLR7) [nM] | IC50 (human TLR9; [2]) [nM] | IC50 (human TLR9; [3]) [nM] | IC50 (human TLR8; [4]) [nM] | Structure (SMILES) |
| --- | --- | --- | --- | --- | --- | --- |
| > 50000 | 4.1 | 409 | – | – | – | Cc1c(-c2[nH]c3cnc(N4CC5(CN(C(=O)CN6CCOCC6)C5)C4)c(F)c3c2C(C)C)cn2ncnc2c1C [Example 399, 1-(6-(2-(7,8-dimethyl-[1,2,4]triazolo[1,5-a]pyridin-6-yl)-4-fluoro-3-isopropyl-1H-pyrrolo[2,3-c]pyridin-5-yl)-2,6-diazaspiro[3.3]heptan-2-yl)-2-morpholinoethan-1-one] |
| – | 0.71 | 0.42 | 2290 | – | – | Cc1c(N2CCC(NCC3(C)COC3)CC2)ncc2[nH]c(-c3cc(C)c4ncnn4c3)c(C(C)C)c12 [Example 170] |
| – | 2.6 | 13 | 733 | 733 | 2.6 | Cc1c(-c2[nH]c3cnc(C4CCC(NCC(C)(C)C)CC4)c(F)c3c2C(C)C)cn2ncnc2c1C (centres unmarked) [Example 234] |
| – | 3.4 | 2.6 | 147 | – | – | Cc1c(-c2[nH]c3cnc(C4CCN(CC(N)=O)CC4)cc3c2C(C)C)cn2ncnc2c1C [Example 23] |
| – | 4.4 | 27 | 6440 | – | – | Cc1c(-c2[nH]c3cnc(N4CC5(C4)CN(C4CCOCC4)C5)c(F)c3c2C(C)C)cn2ncnc2c1C [Example 401] |
| – | 7.7 | 24 | 294 | – | – | COc1cc(-c2[nH]c3cnc(C4CCC(NCC(C)(C)OC)C4)cc3c2C(C)C)cn2ncnc12 (centres unmarked) [Example 96] |
| – | 0.66 | 1.2 | 4140 | – | – | COc1cc(-c2[nH]c3cnc(N4CCC(N(C)C(C)C)CC4)c(F)c3c2C(C)C)cn2ncnc12 [Example 101] |
| – | 440 | 7.9 | 5440 | – | – | COc1cc(-c2[nH]c3cnc(N4CC5(CN(CC(C)C)C5)C4)c(F)c3c2C(C)C)cn2ncnc12 [Example 372] |
| – | 1.6 | 3.5 | 13500 | – | – | Cc1c(-c2[nH]c3cnc(C4CCN(CC(N)=O)CC4)c(F)c3c2C(C)C)cn2ncnc2c1C [Example 15] |
| – | – | 5.7 | – | 16300 | 1.6 | Cc1c(-c2[nH]c3cnc(N4CCN(C5CCOCC5)C[C@H]4C)c(F)c3c2C(C)C)cn2ncnc2c1C [Example 456] |
| – | 7.4 | 7.5 | 647 | – | – | CNC(=O)CNC1CCN(c2cc3c(C(C)C)c(-c4cc(OC)c5ncnn5c4)[nH]c3cn2)CC1 [Example 329] |
| – | – | 12 | – | > 50000 | 39 | COc1cc(-c2[nH]c3cnc(N4CCN(CCS(C)(=O)=O)C[C@H]4C)c(F)c3c2C(C)C)cn2ncnc12 [Example 450] |
| – | 1.6 | 1.3 | 1860 | – | – | COc1cc(-c2[nH]c3cnc(C4CCN(CC5(C)COC5)CC4)c(F)c3c2C(C)C)cn2ncnc12 [Example 17] |
| – | 1.3 | 1.5 | 6080 | – | – | COc1cc(-c2[nH]c3cnc(N4CCC(N(C)CC(=O)N(C)C)CC4)c(F)c3c2C(C)C)cn2ncnc12 [Example 72] |
| – | 26 | 4.7 | 1290 | – | – | COc1cc(-c2[nH]c3cnc(C4CCN(C5COC5)CC4)c(C)c3c2C(C)C)cn2ncnc12 [Example 16] |
| – | – | 1.6 | – | 13800 | 0.54 | Cc1c(-c2[nH]c3cnc(N4CCN(CC5CC5)C[C@H]4C)c(F)c3c2C(C)C)cn2ncnc2c1C [Example 459] |
| – | 3.2 | 8.2 | 2530 | – | – | COCCN1CCN(c2ncc3[nH]c(-c4cc(OC)c5ncnn5c4)c(C(C)C)c3c2C)CC1 [Example 126] |
| – | – | 16 | – | > 50000 | 34 | COc1cc(-c2[nH]c3cnc(N4CCN(CC(C)C)C[C@H]4C)c(F)c3c2C(C)C)cn2ncnc12 [Example 453] |
| – | – | 9 | – | 38800 | 5.2 | Cc1c(-c2[nH]c3cnc(N4CCN(CCS(C)(=O)=O)C[C@H]4C)c(F)c3c2C(C)C)cn2ncnc2c1C [Example 463] |

| IC50 (human TLR9) [nM] | IC50 (human TLR8; [1]) [nM] | IC50 (human TLR7) [nM] | IC50 (human TLR9; [2]) [nM] | IC50 (human TLR9; [3]) [nM] | IC50 (human TLR8; [4]) [nM] | Structure (SMILES) |
| --- | --- | --- | --- | --- | --- | --- |
| – | 0.76 | 1.3 | 5250 | – | – | Cc1cc(-c2[nH]c3cnc(N4CCC(N(C)C5COC5)CC4)c(F)c3c2C(C)C)cn2ncnc12 [Example 130] |
| – | 1.1 | 3 | 8780 | – | – | Cc1c(-c2[nH]c3cnc(C4CCC(NCC(C)(C)C)CC4)c(F)c3c2C(C)C)cn2ncnc2c1C (centres unmarked) [Example 200] |
| – | 11 | 4 | 7320 | – | – | COc1cc(-c2[nH]c3cnc(N4CCN(C5CCC5)C[C@H]4C)c(F)c3c2C(C)C)cn2ncnc12 [Example 441] |
| – | 1.5 | 2.9 | 23000 | – | – | COc1cc(-c2[nH]c3cnc(N4CCN(CC(=O)N(C)C)CC4)c(F)c3c2C(C)C)cn2ncnc12 [Example 360] |
| – | 4.8 | 0.79 | 430 | – | – | COc1cc(-c2[nH]c3cnc(C4CCC(NC5COC5)CC4)c(C)c3c2C(C)C)cn2ncnc12 (centres unmarked) [Example 243] |
| – | 23 | 15 | 14800 | – | – | Cc1cc(-c2[nH]c3cnc(C4CCN(C5COC5)CC4)c(F)c3c2C(C)C)cc(C)n1 [Example 251] |
| – | 3 | 2 | 1760 | – | – | COc1cc(-c2[nH]c3cnc(C4CCN(CC(N)=O)CC4)c(F)c3c2C(C)C)cn2ncnc12 [Example 19] |
| – | 4.2 | 1.6 | 333 | – | – | COc1cc(-c2[nH]c3cnc(C4CCC(NCC(C)(C)F)CC4)c(C)c3c2C(C)C)cn2ncnc12 (centres unmarked) [Example 271] |
| – | 0.18 | 0.41 | 3340 | – | – | Cc1c(-c2[nH]c3cnc(N4CCC(NC(C)C)CC4)c(F)c3c2C(C)C)cn2ncnc2c1C [Example 166] |
| – | 1.6 | 1.3 | 1870 | – | – | Cc1c(N2CCC(N3CCN(S(C)(=O)=O)CC3)CC2)ncc2[nH]c(-c3cc(C)c4ncnn4c3)c(C(C)C)c12 [Example 285] |
| – | 174 | 19 | 10300 | – | – | COc1cc(-c2[nH]c3cnc(N4CC5(C4)CN(C4CCOCC4)C5)c(F)c3c2C(C)C)cn2ncnc12 [Example 370] |
| – | 4.5 | 3.4 | 455 | – | – | COc1cc(-c2[nH]c3cnc(C4CCC(NC(C)C)CC4)c(F)c3c2C(C)C)cn2ncnc12 (centres unmarked) [Example 159] |
| – | 2 | 3.1 | 6820 | – | – | Cc1c(-c2[nH]c3cnc(N4CCN(C(=O)CN(C)C)CC4)c(F)c3c2C(C)C)cn2ncnc2c1C [Example 422] |
| – | 7.1 | 2.1 | 34 | – | – | COc1cc(-c2[nH]c3cnc(C4CCC(NC5CCOC5)CC4)cc3c2C(C)C)cn2ncnc12 (centres unmarked) [Example 317] |
| – | 0.81 | 2.7 | 1890 | – | – | COc1cc(-c2[nH]c3cnc(N4CCN(C5CCN(C(C)C)CC5)CC4)c(F)c3c2C(C)C)cn2ncnc12 [Example 388] |
| – | 1.1 | 0.61 | 1270 | – | – | Cc1cc(-c2[nH]c3cnc(C4CCC(N(C)C(C)C)CC4)c(F)c3c2C(C)C)cn2ncnc12 (centres unmarked) [Example 261] |
| – | 7.1 | 20 | > 50000 | – | – | COc1cc(-c2[nH]c3cnc(N4CCN(CCS(C)(=O)=O)CC4)cc3c2C(C)C)cn2ncnc12 [Example 290] |
| – | 1.2 | 5 | 502 | – | – | COc1cc(-c2[nH]c3cnc(C4CCC(NCC(C)(C)C)C4)cc3c2C(C)C)cn2ncnc12 (centres unmarked) [Example 60] |
